This assay deals with S. Typhi PhoP-promoter GFP reporter, fluorescence, 4 h. Briefly: modified counter assay using GFP fluorescence, PhoP regulon inhibitor project, dose response (AID 1985).

Several values for one entry are separate records, joined by “and”; a condition that tells them apart may be missing. Equal entries are not always repeated.

On to `O=C(NNC(=S)NC(=O)c1ccccc1)c1ccc(O)cc1`, for which the half-maximal inhibitory concentration (IC50) was 71.1 µM.
Turning to `CCCNC1=C(C)C(=O)C2=C(C1=O)C(COC(N)=O)[C@]1(OC)C3NC3CN21` (some centres not stated), the IC50 is 51.8 µM.
With `CN(C)CCCN1c2ccccc2Sc2ccc(Cl)cc21` the figure was 88.1 µM and 81.4 µM.
Consider `CCCCCc1ccc(OCCCC[n+]2cccc(C)c2)c(CCCCC)c1`, for which the IC50 was 103 µM.
To `O=C(CCN1CCOCC1)c1ccc(Br)cc1` belongs 129 µM.
To `Nc1nonc1C(=O)NCCN=Cc1cc(Cc2ccccc2)cc(Br)c1O` belongs 83.3 µM; to `Cc1occc1C(=O)N/N=C/c1cccs1`, 45.7 µM.
To `O=C(Oc1ccccc1)c1cc2ccccc2o1` belongs 76.2 µM; to `CCCCCNC(=O)c1cn(CC)c2cc(N3CCN(C)CC3)c(F)cc2c1=O`, 80.1 µM.
Take `Clc1ccc(C(c2ccc(Cl)cc2)n2cc[n+](CC(OCc3ccc(Cl)cc3Cl)c3ccc(Cl)cc3Cl)c2)cc1` (configuration not stated): the IC50 was 15 µM.
To `CCCCCCCCCCCCCCCCn1cc[n+](C)c1` belongs 19.1 µM.
With `Clc1ccc(OCCCN2CCCC2)cc1Cl` the figure was 48.4 µM; with `CCn1nnc(NC(=O)c2ccc([N+](=O)[O-])o2)n1`, 28.4 µM.
To `CNC[C@@H](Cc1ccccc1)NC[C@@H](CC1CCCCC1)NCCCc1ccccc1` belongs 41.8 µM; to `COc1cc([N+](=O)[O-])cc(/C=N/NC(=O)C(C)Nc2cccc(C)c2)c1O` (configuration not stated), 71.6 µM; to `NCCCC[C@H]1CN=C(N)N1CCC12CC3CC(CC(C3)C1)C2`, 131 µM.
Take `O=C(CSc1nnc(-c2cccnc2)n1Cc1ccco1)c1ccc2ccccc2c1`: the concentration for half-maximal inhibition (IC50) is less than 0.23 µM.
With `Nc1nc(Nc2cccc(F)c2)nc2ccccc12` the figure was 54 µM; with `CN1CCN(c2c(F)cc3c(=O)c(C(=O)O)cn4c3c2OCN4C)CC1`, less than 0.23 µM.
With `O=C(Nc1cccc(NC(=O)c2ccccc2Cl)c1)c1ccc([N+](=O)[O-])o1` the figure was 17.5 µM.
As to `C#CCOCCOCCOCCNc1nc(N2CCN(C(=O)CCCCCCCCCCNC(=O)[C@@H](CCSC)n3cc(CCO)nn3)CC2)nc(N2CCN(C(=O)CCCCCCCCCCNC(=O)[C@H]([C@@H](C)CC)n3cc(CCCCCN)nn3)CC2)n1`, the 50% inhibitory concentration (IC50) is 110 µM.
To `O=C(O)c1cc2c(cn1)[nH]c1ccccc12` belongs 73 µM.
With `CN1/C(=C\C=C\C2=[N+](C)c3ccc4ccccc4c3C2(C)C)C(C)(C)c2ccccc21`, the IC50 was 3.62 µM.
To `COc1ccc(OCc2n(CC(=O)OC3CC(C)CCC3C(C)C)c3ccccc3[n+]2C)cc1` (configuration not stated) belongs 80.6 µM; to `Fc1ccc([C@@H]2CCNC[C@H]2COc2ccc3c(c2)OCO3)cc1`, 77.5 µM.
To `CCNC(=O)Oc1ccc[nH]c1=O` belongs 99.4 µM; to `CN(C)c1ccc(O)c2c1CC1CC3C(N(C)C)C(=O)C(C(N)=O)=C(O)[C@@]3(O)C(=O)C1=C2O` (some centres not stated), 3.21 µM; to `O=C(/C=C(\O)c1ccccc1)C(=O)NNC(=O)c1ccccc1`, 19.7 µM.
Take `CCC(/C=C1\Sc2ccc(OC)cc2N1CCO)=C\c1sc2ccc(OC)cc2[n+]1CCO`: the IC50 was 95 µM.
On to `Cc1cc(C)nc(SCC(=O)Nc2sc3c(c2C#N)CCC(C)C3)n1` (configuration not stated), for which the IC50 is 41.8 µM.
In the case of `CC[N+](C)(CC)CCC[n+]1c(-c2ccccc2)c2cc(N)ccc2c2ccc(N)cc21`, the IC50 was 53.4 µM.
With `CCCCCCCCCCOC(=O)C[N+](C)(C)CC1CCCCC1O` (configuration not stated) the figure was 65 µM.
With `CN(C)CC/C=C1\c2ccc(F)cc2Sc2cc(F)c(Cl)cc21` the figure was 36.7 µM; with `O=C(N/N=C/c1c[nH]c2ccccc12)c1ccc(Cl)cc1`, 123 µM.
To `C#CCOCCOCCOCCNc1nc(N2CCN(C(=O)CCCCCCCCCCNC(=O)[C@H](CCCCN)n3cc(C)nn3)CC2)nc(N2CCN(C(=O)CCCCCCCCCCNC(=O)[C@@H]([C@H](C)CC)n3cc(CCCCCN)nn3)CC2)n1` belongs 79 µM; to `N/C(=N\OS(=O)(=O)c1ccc2ccccc2c1)c1cccnc1`, 14.2 µM; to `CC(C(=O)NC1C=CS(=O)(=O)C1)N1C(=O)/C(=C/c2cccc(Cl)c2)SC1=S` (configuration not stated), 33.6 µM.

Values taken from PubChem BioAssay AID1985 (Southern Research Specialized Biocontainment Screening …, 2009).
